Patent US20220306630A1, “AGONISTS OF ROR GAMMAt” (BRISTOL-MYERS SQUIBB COMPANY, priority 2019, published 2022)

target: T1, RORgT (Homo sapiens, UniProt P51449); assay: RORgT Gal4 Luciferase Reporter Gene Assay; type: cell-based; details: engineered Jurkat cells overexpressing RORgT (LBD or full length) with Gal4 Luc reporter; 18 hours at 37° C.; 40 μM to 0.67 nM; read-out: RORg_GAL4 EC50
T1 construct: Gal4 (fusion partner); expressed in transfected cells; host or cells: engineered Jurkat cells (Jurkat pEx/Gal/hRORγ CLBD/HYG pG5luc/blast)
T1 sequence (P51449 267-516): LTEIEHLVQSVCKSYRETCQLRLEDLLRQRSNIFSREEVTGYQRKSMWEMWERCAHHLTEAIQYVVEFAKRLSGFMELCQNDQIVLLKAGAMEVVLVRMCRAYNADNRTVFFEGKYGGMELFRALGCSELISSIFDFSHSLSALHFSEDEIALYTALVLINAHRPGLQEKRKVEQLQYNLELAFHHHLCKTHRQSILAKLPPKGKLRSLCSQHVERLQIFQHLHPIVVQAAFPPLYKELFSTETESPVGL
Protocol: The compound and the cells were incubated for 18 hours at 37° C. in a cell culture incubator. Cells were then lysed with 15 uL of Steady-Glo Luciferase Assay reagent (Promega EZ550), followed by centrifuging the assay plates at 1500 RPM for 1 minute. Subsequently, the plates were read on the Envision (PerkinElmer). The inhibition of constitutive activity of RORgT achieved by graded concentrations of compound was calculated as a percentage of the luminescence signal window reduction over a control compound.

Row | SMILES | EC50
1 | CC(C)c1cc(Oc2c(Cl)cc(NC(=O)CC3CCN(S(C)(=O)=O)CC3)cc2Cl)ccc1F [Example 266] | 11 nM
2 | COc1ccc(Oc2c(Cl)cc(NC(=O)CCCS(N)(=O)=O)cc2Cl)cc1C(C)C [Example 282] | 264 nM
3 | COc1ccc(Oc2c(Cl)ccc(C(=O)N3CCC(N(C)C)CC3)c2Cl)cc1C(C)C [Example 192] | 89 nM
4 | COc1ccc(Oc2c(Cl)ccc(C(=O)NC3CCN(Cc4ccccc4)C3)c2Cl)cc1C(C)C (stereo not shown) [Example 193] | 866 nM
5 | COc1ccc(Oc2c(Cl)cc(NC(=O)Cc3ccc[n+]([O-])c3)cc2Cl)cc1C(C)C [Example 237] | 235 nM
6 | COc1ccc(Oc2c(Cl)cc3[nH]c(Cc4ccccc4)nc3c2Cl)cc1C(C)C [Example 308] | 1280 nM
7 | COc1ccc(Oc2c(Cl)ccc(C(=O)NCC3CCCC(O)C3)c2Cl)cc1C(C)C (stereo not shown) [Example 225] | 920 nM
8 | COc1ccc(Oc2c(Cl)ccc(CNC(=O)CCC3CCN(S(C)(=O)=O)CC3)c2Cl)cc1C(C)C [Example 224] | 732 nM
9 | COc1ccc(Oc2c(Cl)ccc(C(=O)NCCc3nc4ccccc4s3)c2Cl)cc1C(C)C [Example 178] | 336 nM
10 | COc1ccc(Oc2c(Cl)cc(NC(=O)Cc3ccc(Cl)nc3)cc2Cl)cc1C(C)C [Example 343] | 67 nM
11 | COc1ncc(Oc2c(Cl)ccc(NC(=O)Cc3ccc(S(C)(=O)=O)cc3)c2Cl)cc1C(C)C [Example 23, N-(2,4-dichloro-3-((5-isopropyl-6-methoxypyridin-3-yl)oxy)phenyl)-2-(4-(methylsulfonyl)phenyl)acetamide] | 49 nM
12 | COc1ccc(Oc2c(Cl)ccc(C(=O)N3CC4(CCN(S(C)(=O)=O)CC4)C3)c2Cl)cc1C(C)C [Example 68] | 15 nM
13 | COc1ccc(Oc2c(Cl)cc(NC(=O)CC3CCCN(S(C)(=O)=O)C3)cc2Cl)cc1C(C)C (single isomer, unassigned) [Example 42, N-(3,5-dichloro-4-(3-isopropyl-4-methoxyphenoxy)phenyl)-2-(1-(methylsulfonyl)piperidin-3-yl)acetamide] | 207 nM
14 | COc1ccc(Oc2c(Cl)ccc(C(=O)N(C)CC3(O)CCN(S(C)(=O)=O)CC3)c2Cl)cc1C(C)C [Example 64] | 23 nM
15 | CS(=O)(=O)N1CC2(CCN(C(=O)c3ccc(Cl)c(Oc4cc(F)cc(CCC(F)(F)F)c4)c3Cl)CC2)C1 [Example 327] | 90 nM
16 | COc1ccc(Oc2c(Cl)cc(NS(=O)(=O)C3CC3)cc2Cl)cc1C(C)C [Example 304] | 1080 nM
17 | COc1ccc(Oc2c(Cl)cc(C(=O)NCc3ccc(S(N)(=O)=O)cc3)cc2Cl)cc1C(C)C [Example 156] | 1930 nM
18 | COc1ccc(Oc2c(Cl)cc(NC(=O)Nc3cccnc3)cc2Cl)cc1C(C)C [Example 232] | 285 nM
19 | COc1ccc(Oc2c(Cl)cc(NC(=O)CC3CCCN(S(=O)(=O)C(C)C)C3)cc2Cl)cc1C(C)C (stereo not shown) [Example 316] | 943 nM
20 | CC(C)c1cc(Oc2c(Cl)ccc(C(=O)NCc3ccc(S(C)(=O)=O)cc3)c2Cl)ccc1F [Example 131] | 2.7 nM
21 | COc1ccc(Oc2c(Cl)ccc(C(=O)NCC3CCN(S(C)(=O)=O)CC3)c2Cl)cc1C(C)C [Example 86] | 12 nM
22 | COc1ccc(Oc2c(Cl)cc(NC(=O)Cc3cncc(S(C)(=O)=O)c3)cc2Cl)cc1C(C)C [Example 242] | 40 nM
23 | CC(C)(F)c1cc(F)cc(Oc2c(Cl)cc(NC(=O)Cc3cccc(S(C)(=O)=O)c3)cc2Cl)c1 [Example 53, N-(3,5-dichloro-4-(3-fluoro-5-(2-fluoropropan-2-yl)phenoxy)phenyl)-2-(3-(methylsulfonyl)phenyl)acetamide] | 40 nM
24 | COc1ccc(Oc2c(Cl)ccc(C(=O)n3nc(C)cc3CN)c2Cl)cc1C(C)C [Example 181] | 214 nM
25 | COc1ccc(Oc2c(Cl)cc(NC(=O)CC3CCN(S(C)(=O)=O)CC3)cc2Cl)cc1C(C)C [Example 45, N-(3,5-dichloro-4-(3-isopropyl-4-methoxyphenoxy)phenyl)-2-(1-(methylsulfonyl)piperidin-4-yl)acetamide] | 18 nM
